Laboratory results reported in patent publication US10238670B2, “9-aminomethyl minocycline compounds and methods of use thereof in urinary tract infection (UTI) treatment” (Paratek Pharmaceuticals, Inc., priority 2016, dated 2019).
Values joined by “and” are separate entries in the source; they are usually repeats but may differ in a detail not shown here. Equal entries are not always repeated.

Tests used:
[1] = In vitro plasma protein binding (ultrafiltration), human plasma; format: in vitro ADME; conditions: male; human plasma; 10-10,000 ng/mL; mean±SD; read-out: mean unbound protein fraction (fu) in plasma
Description: (§1) For human binding studies, plasma was obtained from the blood of three healthy male volunteers. Plasma was defrosted from storage at -20° C. before use, and pools of human plasma were used for all studies. Plasma from mouse, rat, and monkey was supplied by Harlan Laboratories Ltd. (Netherlands), Milan […], Switzerland) and Centre de Primatologie ULP (France), respectively. Protein binding was measured using an ultrafiltration method. To asses the suitability of ultrafiltration, the recovery and free permeation of [^14C]-labelled Compound 1 in PBS buffer were investigated. […] Three 1 mL aliquots per concentration were introduced into […]® devices and spun for 1 min at 2000 g (filtrate ≤500 μL). Samples of the spiked solutions, the filtrate and retentate were quantified by LSC; volumes were determined by weighing. The free permeation of the test compound in PBS was evaluated as follows: Ratio=[Cuf/Cr] with Cuf being the concentration in the ultrafiltrate (ng/mL) and Cr the concentration in the retentate (ng/mL). […] Specifically, concentrations of Compound 1 was determined by an UPLC-MS/MS method. […] Standards and quality control samples were prepared on the day of analysis by adding a 20 μL aliquot of an appropriate standard or QC spiking solution in methanol. A 25 μL aliquot of the internal standard (at 200 ng/mL in methanol) was added to each well except blanks. […] Samples were processed using protein precipitation. A 0.5 mL aliquot of an acetonitrile/ethanol/acetic acid mixture (90:10:0.1, v:v:v) was added to each sample; samples were mixed using a vortex mixer for 10 minutes, and centrifuged 3800 rpm (approximately 2500×g) for 10 min at 10° C. A 500 μL aliquot of the supernatant transferred to a clean 96 well plate, 2 ml. An aliquot 500 μL of 80:20 (water:acetonitrile) was added to all the samples. Samples were mixed by vortexing for 0.5 min. A 6 μL sample volume was injected into the UPLC/MS/MS system for analysis. Samples were then assayed on an UPLC-MS/MS system, consisting of an Acquity UPLC with a quaternary pump, a ample manager, and sample organizer, coupled to a Sciex API4000 mass spectrometer running Analyst software version 1.4.2 (Foster City, Calif., USA). The mass spectrometer was operated in the positive ion mode, using electro spray ionization, with a source temperature of 500° C. Chromatographic separation was carried out on an Acquity BEH C18, 50×2.1, 1.7 particle (Waters, Mass.) at a flow rate of 1.0 mL/min. The column temperature was maintained at 65° C. […] The ions monitored for Compound 1 was the parent [M+H]^+ ion at m/z 557.3.0; the product ions at m/z 453.4. Data processing: Calibration curves (y=x^2+xb+c or y=ax+b), represented by the plots of the respective peak area ratios (y) of the analyte […] versus the concentrations (x) of the calibration samples, were generated using weighted (1/x^2 or 1/x) quadratic least-squares regression as the mathematical model. The quantification was performed using Analyst software and Watson LIMS version 7.2.0.01. Concentrations in QC and study samples were calculated from the resulting peak area ratios and interpolation from the regression equations of the respective calibration curves. The lower limit of quantitation was 5.0 ng/mL for Compound 1.

plasma proteins = assay: as above; format: in vitro ADME
Description: as §1

[2] = Phase 1 studies, plasma pharmacokinetics (IV and oral)

For CN(C)c1cc(CNCC(C)(C)C)c(O)c2c1C[C@H]1C[C@H]3[C@H](N(C)C)C(O)=C(C(N)=O)C(=O)[C@@]3(O)C(O)=C1C2=O [Compound 1, 9-[(2,2-dimethyl-propylamino)-methyl]-minocycline], the fraction unbound [1] was 0.787 ± 0.0972, the “Mean (SD) Bound Fraction” value (plasma proteins; human plasma, 10-10,000 ng/mL) was 21% and 21.3 (9.72) % and the “concentration dependency of plasma protein binding” value (plasma proteins; human plasma, 10-10,000 ng/mL) was “not concentration dependent”. The “mean unbound protein fraction (fu) in plasma” value (plasma proteins; human plasma, 10-10,000 ng/mL, mean±SD) was 78.7±9.7%, the fraction unbound at 100 ng/mL (plasma proteins; male, human, plasma, Concentration 100 ng/mL) was 0.656 and the fraction unbound at 1000 ng/mL (plasma proteins; male, human, plasma, Concentration 1,000 ng/mL) was 0.878. The fraction unbound at 10000 ng/mL (plasma proteins; male, human, plasma, Concentration 10,000 ng/mL) was 0.798, the fraction unbound (plasma proteins; male, human, plasma, Mean over concentrations) was 0.787 and the “bioequivalence of tablet and IV dose” value ([2]; 300 mg dose of tablet) was “bioequivalent to a 100 mg IV dose”. For the same compound, the half-life ([2]; human, in vivo) was about 18 h, the Cmax ([2]; human, in vivo, iv, 100 mg) was about 1800 ng/mL and the “exposure based on plasma concentrations, higher at steady-state than after a single dose” value ([2]; steady state vs single dose) was “approximately 50%”. For the same compound, the “steady state AUC (IV and oral) and Cmax (oral) relative to single IV or oral dose” value ([2]; steady state vs single dose) was “approximately 1.5 ×”.
